Experimental findings from patent publication US20230404996A1, “APPLICATION OF ISOQUINOLINE COMPOUND IN TUMOR TREATMENT” (NANJIANG SHIJIANG MEDICINE TECHNOLOGY CO., LTD, priority 2020, published 2023) are described below.

In test [1] the test system is NCI-H82. Put plainly: Cell viability (CellTiter-Glo) IC50 on tumor cell lines. The note with it: NCI-H82, 3 days of culture, read-out: Inhibitory effect on cell line (IC50). The test is classed as cell-based, human. The procedure:
(§1) The inhibitory effect of isoquinoline compounds on various tumor cell lines was detected using cell activity detection reagent.
(§2) Cell viability was detected using the Promega CellTiter-Glo kit, the kit reflected cell viability by directly measuring intracellular ATP content. In this experiment, the IC50 values of isoquinoline compounds on various tumor cell lines was determined.
(§3) Tumor cells were cultured in 10% FBS-containing medium (+p/s), and incubated for 3 h or the following day, then the gradient diluted isoquinoline compound was added. After 3 days of culture, the relevant IC50 (50% inhibiting concentration) was measured. The name, source and culture conditions of each tumor cell line were as follows: • Cell line NCI-H82 (ATCC, No. HTB-175) was cultured in 10% fetal bovine serum-containing RPMI1640 medium (+P/S). • Cell line G-401 (ATCC, No. CRL-1441) was cultured in 10% fetal bovine serum-containing McCoy's 5a medium (+P/S). • Cell line MDA-MB-453 (ATCC, No. HTB-131) was cultured in 10% fetal bovine serum-containing Leibovit's L-15 medium (+P/S). • Cell line SW48 (ATCC, No. CCL-231) was cultured in 10% fetal bovine serum-containing Leibovitz's L-15 medium (+P/S). • Cell line CFPAC-1 (ATCC, No. CRL-1918) was cultured in 10% fetal bovine serum-containing IMDM medium (+P/S). • Cell line 786-O (ATCC, No. CRL-1932) was cultured in 10% fetal bovine serum-containing RPMI1640 medium (+P/S). • Cell line GB-I (JCRB, No. IFO50489) was cultured in 10% fetal bovine serum-containing DMEM medium (+P/S). • Cell line SF126 (JCRB, No. IFO50286) was cultured in 10% fetal bovine serum-containing EMEM medium (+P/S).
In general terms: ATP-based viability assays read luminescence as a measure of living cells.

For test [2], the system named is 786-O. The description is as above. The test is classed as cell-based. The note with it: Homo sapiens, 786-0, 72 h, 3 days of culture, read-out: Inhibitory effect on cell line (IC50). The procedure:
as §1, §2, §3

The subject of test [3] is CFPAC-1. The test is described as above. In kind it is cell-based. To be noted: Homo sapiens, 72 h; CFPAC-1, 3 days of culture; read-out: Inhibitory effect on cell line (IC50). The protocol: as §1, §2, §3
Test [4] has as its system G-401. The test is described as above. The test is classed as cell-based. To be noted: Homo sapiens, 72 h; G-401, 3 days of culture; read-out: Inhibitory effect on cell line (IC50). The protocol: as §1, §2, §3
Test [5] concerns GB-1. Described as above. In kind it is cell-based. The note with it: Homo sapiens, 72 h; GB-1, 3 days of culture; read-out: Inhibitory effect on cell line (IC50). The protocol: as §1, §2, §3
Test [6] concerns MDA-MB-453. The description is as above. In kind it is cell-based. The note with it: Homo sapiens, 72 h; MDA-MB-453, 3 days of culture; read-out: Inhibitory effect on cell line (IC50). The protocol: as §1, §2, §3
Test [7] deals with SF-126. The description is as above. In kind it is cell-based. To be noted: Homo sapiens, 72 h; SF-126, 3 days of culture; read-out: Inhibitory effect on cell line (IC50). The protocol:
as §1, §2, §3

Test [8] relates to SW48. The test is described as above. The note with it: Homo sapiens, 72 h; SW48, 3 days of culture; read-out: Inhibitory effect on cell line (IC50). In kind it is cell-based. The protocol:
as §1, §2, §3

Test [9] has as its system D341 Med. Put plainly: Cell viability (CellTiter-Glo) IC50 on brain tumor cell lines. In kind it is cell-based. To be noted: 72 h, 3 days of culture, read-out: Inhibitory effect on brain tumor cell line (IC50). The procedure:
(§4) The inhibitory effect of isoquinoline compounds on various brain tumor cell lines was detected using cell activity detection reagents.
(§5) Cell viability was detected using the Promega CeliTiter-Glo kit, the kit reflected cell viability by directly measuring intracellular ATP content. In this experiment, the IC50 values of isoquinoline compounds on various brain tumor cell lines was determined.
(§6) Brain tumor cells were cultured in 10% FBS-containing medium (+p/s), and incubated for 3 h or the following day, the gradient diluted isoquinoline compound was added. After 3 days of culture, the relevant IC50 (50% inhibiting concentration) was measured. The name, source and culture conditions of each brain tumor cell line were as follows: • Cell line D341 Med (ATCC, No. HTB-187) was cultured in 20% fetal bovine serum-containing EMEM medium (+P/S). • Cell line Kelly (ECACC, No. 92110411) was cultured in RPMI1640 medium containing 10% fetal bovine serum and 2 mM glutamine; • Cell line NB-I (ATCC, No. HTB-131) was cultured in 10% fetal bovine serum-containing Leibovitz's L-15 medium (+P/S).

Test [10] deals with Kelly. The test is described as above. In kind it is cell-based. To be noted: 72 h, 3 days of culture, read-out: Inhibitory effect on brain tumor cell line (IC50). The protocol: as §4, §5, §6
Test [11] relates to NB-1. The description is as above. In kind it is cell-based. The note with it: Homo sapiens, NB1, 72 h; NB-1, 3 days of culture; read-out: Inhibitory effect on brain tumor cell line (IC50). The procedure:
as §4, §5, §6

Test [12] relates to NCI-H82 cell overexpressing NNMT protein (ov-NNMT). Put plainly: Sensitivity of NCI-H82 cell after overexpression of NNMT protein (intracellular ATP detection). To be noted: NNMT protein overexpressed alone (ov-NNMT), compared with Vector; FIG. 11. The test is classed as cell-based, human. An excerpt: (§7) The NCI-H82 cell overexpressing NNMT protein was obtained by inserting the NNMT gene into NCI-1-182 cell using a viral vector. The expression of DNMT1 in NCI-H82 cells was knocked down using shRNA transfection. The changes in sensitivity of cell to isoquinoline compounds was investigated using intracellular ATP detection methods after overexpression of NNMT protein and/or knockdown of DNMT1 expression. The experiment result was shown in FIG. 11, wherein, “Vector” referred to NCI-1182 cell transfected with empty virus as control group.

The test system of test [13] is NCI-H82 cell with knockdown of DNMT1 expression (sh-DNMT1 #1, sh-DNMT1 #2). Put plainly: Sensitivity of NCI-H82 cell after knockdown of DNMT1 expression (intracellular ATP detection). To be noted: DNMT1 expression knocked down (sh-DNMT1 #1 or #2), compared with Vector; FIG. 11. The test is classed as cell-based, human.
Description: as §7

Test [14] relates to NCI-H82 cell ov-NNMT/sh-DNMT1 #1 and ov-NNMT/sh-DNMT1 #2. Put plainly: Sensitivity of NCI-H82 cell after overexpression of NNMT and knockdown of DNMT1 (intracellular ATP detection). In kind it is cell-based, human. To be noted: NNMT overexpressed and DNMT1 knocked down simultaneously; FIG. 11.
Description: as §7

For test [15], the system named is NCI-H82 tumor. Put plainly: Inhibitory effect on subcutaneous NCI-H82 tumor in nude mice. In kind it is in vivo. To be noted: nude mice inoculated with NCI-H82, intraperitoneally 10 mg/kg/day; FIG. 14. An excerpt: (§8) To verify whether the cells sensitive to isoquinoline compounds still maintained the sensitivity to isoquinoline compounds in vivo, inhibitory effect of berberine hydrochloride on tumor-bearing mice subcutaneously inoculated with sensitive cells (NCI-H82) was detected.
(§9) 5×10^6 of normal NCI-H82 cells, NCI-H82 cells with overexpression of NNMT protein and […] of DNMT1 (i.e. ov-NNMT/sh-DNMT1, the method for overexpressing NNMT protein and knocking down DNMT1 expression was shown in Example 13) were subcutaneously inoculated in nude mice to establish tumor-bearing mice. Each group of tumor-bearing mice was injected intraperitoneally with the berberine hydrochloride at a dose of 10 mg/kg/day, the change of tumor volume size over time was measured, and the tumors were removed and photographed in each group of mice at the end of the experiment to investigate the inhibitory effect of berberine hydrochloride on the tumor. The mice in control group was injected intraperitoneally with solvent vehicle in the same method, and the tumor volume was calculated as follows: tumor volume=½ length×width^2.

The subject of test [16] is NCI-H82 ov-NNMT/sh-DNMT1 tumor. Put plainly: Inhibitory effect on subcutaneous NCI-H82 ov-NNMT/sh-DNMT1 tumor in nude mice. In kind it is in vivo. To be noted: nude mice inoculated with ov-NNMT/sh-DNMT1, intraperitoneally 10 mg/kg/day, compared with NCI-H82 tumor; FIG. 15.
Description: as §8, §9

SMILES strings stand for the structures. Structures can show the parent of a compound that is named as a salt. Where two headings read alike, the source gives them in different places.

A word on the IC50: it is the point on the concentration scale where inhibition reaches its midpoint. As for `COc1ccc2cc3[n+](cc2c1OC)CCc1cc2c(cc1-3)OCO2` [Berberine hydrochloride, reference compound], the IC50 was determined as 510 nM in test [1] (Homo sapiens, 72 h); 15300 nM in [2]; 9500 nM in [3]; 1120 nM in [4]; 19600 nM in test [5]; 940 nM in test [6]. Besides, the IC50 in test [7] came out at 21300 nM; in test [8] it was 1260 nM; in [9], 4500 nM; in [10], 4100 nM; in [11], 1700 nM. Moreover, the “Sensitivity of NCI-H82 cell to the compound” value in test [12] and in test [13] was “decreased” throughout. Besides, the “Sensitivity of NCI-H82 tumor cells to the compound” value in [14] is given as “decreased more significantly”. Also, the “Inhibitory effect on subcutaneous tumor (tumor volume)” value in test [15] is “significantly inhibit”; in test [16] it was “significantly weaker”.
For the compound `CCCOc1c(OC)ccc2cc3[n+](cc12)CCc1cc2c(cc1-3)OCO2` [Compound BBR-A1], the IC50 was determined as 400 nM in [1] (Homo sapiens, 72 h); 16300 nM in test [2]; 8300 nM in test [3]; 1000 nM in test [4]; 9100 nM in test [5]; 800 nM in test [6]. The IC50 in test [7] was determined as 7500 nM; in test [8], 200 nM; in test [9], 1000 nM; in [10] it was 1300 nM; in test [11] it was 300 nM.
Turning to `C=CCOc1c(OC)ccc2cc3[n+](cc12)CCc1cc2c(cc1-3)OCO2` [Compound BBR-A2], the IC50 in [1] (Homo sapiens, 72 h) came out at 700 nM; in [2], 37100 nM; in test [3], 14900 nM; in test [4] it was 1600 nM; in test [5] it was 11200 nM; in test [6], 1300 nM. Further, the half-maximal inhibitory concentration (IC50) in test [7] came to 22600 nM; in test [8] it was 3200 nM; in test [9], 1700 nM; in [10], 2100 nM; in test [11], 600 nM.
Regarding `COc1ccc2cc3[n+](cc2c1OCC(=O)OC(C)(C)C)CCc1cc2c(cc1-3)OCO2` [Compound BBR-A5], the IC50 turned out to be 500 nM in [1] (Homo sapiens, 72 h); 18500 nM in test [2]; 17700 nM in [3]; 1100 nM in test [4]; 9200 nM in [5]; 700 nM in test [6]. In addition, the IC50 in test [7] was determined as 15500 nM; in test [8], 1800 nM; in test [9] it was 1500 nM; in [10] it was 1800 nM; in test [11], 300 nM.
As for `c1c2c(cc3c1OCO3)-c1cc3ccc4c(c3c[n+]1CC2)OCO4` [Coptisine hydrochloride], the IC50 was 1800 nM in test [1]; over 30000 nM in [2]; 22100 nM in [3]; 3400 nM in test [4]; 24800 nM in test [5]; 1600 nM in [6]. Further, the IC50 in [7] is over 30000 nM; in test [8], 6000 nM; in test [9] it was 2800 nM; in test [10] it was 4400 nM; in test [11], 2500 nM.
In the case of `Cc1c2[n+](cc3cc4c(cc13)OCO4)CCc1cc3c(cc1-2)OCO3` [worenine], the IC50 in test [1] (Homo sapiens, 72 h) is 4300 nM; in test [2] it was over 30000 nM; in [3], over 30000 nM; in [4], 2300 nM; in [5], over 30000 nM; in [6], 1300 nM. Also, the IC50 was over 30000 nM in test [7]; 9600 nM in [8]; 4800 nM in [9]; 3900 nM in [10]; 2600 nM in [11].
